Target: T1, RIPK2 enzyme (Homo sapiens, UniProt O43353)
T1 construct: purchased Carna 09-128
Test: RIPK2 inhibition (ADP-Glo Kinase Assay)
Assay type: biochemical
Conditions: RIPK2 5 nM, ATP 150 μM, MBP substrate, read-out: RIPK2 IC50
Procedure: RIPK2 inhibition was measured as follows:
The V9102 ADP-Glo Kinase Assay (including ultrapure ATP, 10 mM) was purchased from Promega. Native swine MBP was used as the substrate for the reaction and was purchased from SignalChem Biotech (catalogue number M42-51N). Assay buffer used for the assay consisted of the following components: MgCl2 (final concentration of 10 mM), Brij-35 (0.01%), DTT (final concentration of 2 mM), BSA (0.05%), EGTA (final concentration of 1 mM), and HEPE (pH 7.5 at final concentration of 50 mM).
Method: In a 384 well plate, 10 nL of test compound was dispensed using Echo550 and mixed with RIPK2 enzyme (final concentration of 5 nM) in assay buffer for 30 minutes at room temperature. […] Then ADP-Glo reagent was added and incubated for 60 min at room temperature. Last, Kinase Detection Reagent was added to the mixture and incubated for 60 min. The resulting luminescent signal was measured with an Envision reader to determine the amount of ADP produced. All plates contained vehicle controls (10 nL DMSO only) as a reference for the high control (0% kinase inhibition), and wells with no RIPK2 enzyme as reference for low control (100% kinase inhibition). Data were analyzed to determine the percent inhibition of ADP production in the presence of test compound using both low and high controls.

T1 sequence (O43353 1-299 limits assumed): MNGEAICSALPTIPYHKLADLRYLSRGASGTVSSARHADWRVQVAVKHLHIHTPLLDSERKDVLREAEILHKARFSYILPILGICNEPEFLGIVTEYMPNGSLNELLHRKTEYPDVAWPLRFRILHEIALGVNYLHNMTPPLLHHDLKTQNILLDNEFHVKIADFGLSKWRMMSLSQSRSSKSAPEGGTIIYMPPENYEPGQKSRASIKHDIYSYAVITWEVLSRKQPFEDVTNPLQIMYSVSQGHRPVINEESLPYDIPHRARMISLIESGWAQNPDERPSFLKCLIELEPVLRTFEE

SMILES | IC50
Cc1cc(CC(=O)Nc2cnn(C(C)(C)C)c2)ccc1Oc1ccnc2ccc(OC3CCNCC3C)cc12 (racemic) [Compound 187] | < 2.5 nM
Cc1cc(CC(=O)Nc2cnn(C(C)(C)C)c2)ccc1Oc1ccnc2ccc(OC3CCNCC3C)cc12 (racemic) [Compound 188, N-(1-(tert-butyl)-1H-pyrazol-4-yl)-2-(3-methyl-4-((6-((-3-methyl-piperidin-4-yl)oxy)quinolin-4-yl)oxy)phenyl) acetamide] | < 2.5 nM
Cc1cc(CC(=O)Nc2cnn(C(C)(C)C)c2)ccc1Oc1ccnc2ccc(OC3CCNCC3O)cc12 (racemic) [Compound 189, N-(1-(tert-butyl)-1H-pyrazol-4-yl)-2-(4-((6-((-3-hydroxy-piperidin-4-yl)oxy)quinolin-4-yl)oxy)-3-methylphenyl) acetamide] | < 2.5 nM
Cc1cc(CC(=O)Nc2cnn(C(C)(C)C)c2)ccc1Oc1ccnc2ccc(OC3CCNC(C)C3)cc12 (racemic) [Compound 220, N-(1-(tert-butyl)-1H-pyrazol-4-yl)-2-(3-methyl-4-((6-((-2-methyl-piperidin-4-yl)oxy)quinolin-4-yl)oxy)phenyl) acetamide] | < 2.5 nM
Cc1cc(CC(=O)Nc2cnn(C(C)(C)C)c2)ccc1Oc1ccnc2ccc(OC3CCNC(C)C3)cc12 (racemic) [Compound 221, N-(1-(tert-butyl)-1H-pyrazol-4-yl)-2-(3-methyl-4-((6-((-2-methyl-piperidin-4-yl)oxy)quinolin-4-yl)oxy)phenyl) acetamide] | < 2.5 nM
Cc1cc(CC(=O)Nc2cnn(C(C)(C)C)c2)ccc1Oc1ccnc2ccc(OC3CCNCC3F)cc12 (racemic) [Compound 237, N-(1-(tert-butyl)-1H-pyrazol-4-yl)-2-(4-((6-((-3-fluoro-piperidin-4-yl)oxy)quinolin-4-yl)oxy)-3-methylphenyl) acetamide] | < 2.5 nM
Cc1cc(CC(=O)Nc2cnn(C(C)(C)C)c2)ccc1Oc1ccnc2ccc(OC3CCNCC3F)cc12 (racemic) [Compound 238, N-(1-(tert-butyl)-1H-pyrazol-4-yl)-2-(4-((6-((-3-fluoro-piperidin-4-yl)oxy)quinolin-4-yl)oxy)-3-methylphenyl) acetamide] | < 2.5 nM
COc1ccc2ncnc(Oc3cnc(C(C)C(=O)Nc4cnn(C(C)(C)C)c4)c(F)c3)c2c1 (single isomer, unassigned) [Compound 11, N-(1-(tert-butyl)-1H-pyrazol-4-yl)-2-(3-fluoro-5-((6-methoxyquinazolin-4-yl)oxy)pyridin-2-yl)propanamide] | 70.7 nM
CC(C)(C)n1cc(NC(=O)Cc2ccc(Oc3ccnc4ccc(S(C)(=N)=O)cc34)cc2F)cn1 (single isomer, unassigned) [Compound 69, N-(1-(tert-butyl)-1H-pyrazol-4-yl)-2-(2-fluoro-4-((6-(S-methylsulfonimidoyl)quinolin-4-yl)oxy)phenyl)acetamide] | 6.9 nM
CC(C)(C)n1cc(NC(=O)Cc2ccc(Oc3ccnc4ccc(S(C)(=N)=O)cc34)cc2F)cn1 (single isomer, unassigned) [Compound 70, N-(1-(tert-butyl)-1H-pyrazol-4-yl)-2-(2-fluoro-4-((6-(S-methylsulfonimidoyl)quinolin-4-yl)oxy)phenyl)acetamide] | 5.1 nM
CN(C)C1CCN(c2ccc3nccc(Oc4cnc(CC(=O)Nc5cnn(C(C)(C)C)c5)c(F)c4)c3c2)C1 (single isomer, unassigned) [Compound 140, N-(1-(tert-butyl)-1H-pyrazol-4-yl)-2-(5-((6-(3-(dimethylamino)pyrrolidin-1-yl)quinolin-4-yl)oxy)-3-fluoropyridin-2-yl)acetamide] | 7.4 nM
CN(C)C1CCN(c2ccc3nccc(Oc4cnc(CC(=O)Nc5cnn(C(C)(C)C)c5)c(F)c4)c3c2)C1 (single isomer, unassigned) [Compound 141, N-(1-(tert-butyl)-1H-pyrazol-4-yl)-2-(5-((6-(3-(dimethylamino)pyrrolidin-1-yl)quinolin-4-yl)oxy)-3-fluoropyridin-2-yl)acetamide] | 10.3 nM
Cc1cc(CC(=O)Nc2cnn(C(C)(C)C)c2)ccc1Oc1ccnc2ccc(OCC3CCCN3)cc12 (single isomer, unassigned) [Compound 190, N-(1-(tert-butyl)-1H-pyrazol-4-yl)-2-(3-methyl-4-((6-(pyrrolidin-2-ylmethoxy)quinolin-4-yl)oxy)phenyl) acetamide] | < 2.5 nM
Cc1cc(CC(=O)Nc2cnn(C(C)(C)C)c2)ccc1Oc1ccnc2ccc(OCC3CCCN3)cc12 (single isomer, unassigned) [Compound 191, N-(1-(tert-butyl)-1H-pyrazol-4-yl)-2-(3-methyl-4-((6-(pyrrolidin-2-ylmethoxy)quinolin-4-yl)oxy)phenyl) acetamide] | < 2.5 nM
CC(C)(C)n1cc(NC(=O)Cc2ccc(Oc3ccnc4ccc(S(C)(=N)=O)cc34)c(Cl)c2)cn1 (single isomer, unassigned) [Compound 196, N-(1-(tert-butyl)-1H-pyrazol-4-yl)-2-(3-chloro-4-((6-(S-methylsulfonimidoyl)quinolin-4-yl)oxy)phenyl)acetamide] | < 2.5 nM
Cc1cc(CC(=O)Nc2cnn(C(C)(C)C)c2)ccc1Oc1ccnc2ccc(S(=O)(=O)C3CCOC3)cc12 (single isomer, unassigned) [Compound 199, N-(1-(tert-butyl)-1H-pyrazol-4-yl)-2-(3-methyl-4-((6-((tetrahydrofuran-3-yl)sulfonyl)quinolin-4-yl)oxy)phenyl)acetamide] | < 2.5 nM
Cc1cc(CC(=O)Nc2cnn(C(C)(C)C)c2)ccc1Oc1ccnc2ccc(S(=O)(=O)C3CCOC3)cc12 (single isomer, unassigned) [Compound 200, N-(1-(tert-butyl)-1H-pyrazol-4-yl)-2-(3-methyl-4-((6-((tetrahydrofuran-3-yl)sulfonyl)quinolin-4-yl)oxy)phenyl)acetamide] | < 2.5 nM
Cc1cc(CC(=O)Nc2cnn(C(C)(C)C)c2)ccc1Oc1ccnc2ccc(S(=O)(=O)C3CCNC3)cc12 (single isomer, unassigned) [Compound 201, N-(1-(tert-butyl)-1H-pyrazol-4-yl)-2-(3-methyl-4-((6-(pyrrolidin-3-ylsulfonyl)quinolin-4-yl)oxy)phenyl)acetamide] | < 2.5 nM
Cc1cc(CC(=O)Nc2cnn(C(C)(C)C)c2)ccc1Oc1ccnc2ccc(S(=O)(=O)C3CCNC3)cc12 (single isomer, unassigned) [Compound 202, N-(1-(tert-butyl)-1H-pyrazol-4-yl)-2-(3-methyl-4-((6-(pyrrolidin-3-ylsulfonyl)quinolin-4-yl)oxy)phenyl)acetamde] | < 2.5 nM
Cc1cc(CC(=O)Nc2cnn(C(C)(C)C)c2)ccc1Oc1ccnc2ccc(OCC(C)O)cc12 (single isomer, unassigned) [Compound 224, N-(1-(tert-butyl)-1H-pyrazol-4-yl)-2-(4-((6-(2-hydroxy-propoxy)quinolin-4-yl)oxy)-3-methylphenyl) acetamide] | < 2.5 nM
Cc1cc(CC(=O)Nc2cnn(C(C)(C)C)c2)ccc1Oc1ccnc2ccc(OCC(C)O)cc12 (single isomer, unassigned) [Compound 225, N-(1-(tert-butyl)-1H-pyrazol-4-yl)-2-(4-((6-(2-hydroxy-propoxy)quinolin-4-yl)oxy)-3-methylphenyl) acetamide] | < 2.5 nM
Cc1cc(CC(=O)Nc2cnn(C(C)(C)C)c2)ccc1Oc1ccnc2ccc(S(=O)(=O)CC3CCOC3)cc12 (single isomer, unassigned) [Compound 241, N-(1-(tert-butyl)-1H-pyrazol-4-yl)-2-(3-methyl-4-((6-(((tetrahydrofuran-3-yl)methyl)sulfonyl)quinolin-4-yl)oxy)phenyl)acetamide] | < 2.5 nM
Cc1cc(CC(=O)Nc2cnn(C(C)(C)C)c2)ccc1Oc1ccnc2ccc(S(=O)(=O)CC3CCOC3)cc12 (single isomer, unassigned) [Compound 242, N-(1-(tert-butyl)-1H-pyrazol-4-yl)-2-(3-methyl-4-((6-(((tetrahydrofuran-3-yl)methyl)sulfonyl)quinolin-4-yl)oxy)phenyl)acetamide] | < 2.5 nM
Cc1c(Oc2ccnc3ccc(S(=O)(=O)C4CCOC4)cc23)ccc(CC(=O)Nc2cnn(C(C)(C)C)c2)c1F (single isomer, unassigned) [Compound 250, N-(1-(tert-butyl)-1H-pyrazol-4-yl)-2-(2-fluoro-3-methyl-4-((6-((tetrahydrofuran-3-yl)sulfonyl)quinolin-4-yl)oxy)phenyl)acetamide] | < 2.5 nM
Cc1c(Oc2ccnc3ccc(S(=O)(=O)C4CCOC4)cc23)ccc(CC(=O)Nc2cnn(C(C)(C)C)c2)c1F (single isomer, unassigned) [Compound 251, N-(1-(tert-butyl)-1H-pyrazol-4-yl)-2-(2-fluoro-3-methyl-4-((6-((tetrahydrofuran-3-yl)sulfonyl)quinolin-4-yl)oxy)phenyl)acetamide] | < 2.5 nM
Cc1cc(CC(=O)Nc2cnn(C(C)(C)C)c2)ccc1Oc1ccnc2ccc(S(=O)(=O)C3CC(N)C3)cc12 (single isomer, unassigned) [Compound 282, 2-(4-((6-((-3-aminocyclobutyl)sulfonyl)quinolin-4-yl)oxy)-3-methylphenyl)-N-(1-(tert-butyl)-1H-pyrazol-4-yl)acetamide] | < 2.5 nM
